Laboratory results taken from PubChem BioAssay (NCI).
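Five concentrations, 48 hours, 96-well plates. TGI: total growth inhibition.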

Legend:
Assay in all cases: NCI-60 cell line screen, 48 h
786-0 renal = system: 786-0 renal
A498 renal = system: A498 renal
A549 NSCLC = system: A549 NSCLC
ACHN renal = system: ACHN renal
BT-549 breast = system: BT-549 breast
CAKI-1 renal = system: CAKI-1 renal
CCRF-CEM leukemia = system: CCRF-CEM leukemia
COLO 205 colon = system: COLO 205 colon
DU-145 prostate = system: DU-145 prostate
EKVX NSCLC = system: EKVX NSCLC
HCC-2998 colon = system: HCC-2998 colon
HCT-116 colon = system: HCT-116 colon
HCT-15 colon = system: HCT-15 colon
HOP-62 NSCLC = system: HOP-62 NSCLC
HOP-92 NSCLC = system: HOP-92 NSCLC
HS 578T breast = system: HS 578T breast
HT29 colon = system: HT29 colon
IGROV1 ovarian = system: IGROV1 ovarian
K-562 leukemia = system: K-562 leukemia
KM12 colon = system: KM12 colon
M14 melanoma = system: M14 melanoma
MALME-3M melanoma = system: MALME-3M melanoma
MCF7 breast = system: MCF7 breast
MDA-MB-231 breast = system: MDA-MB-231 breast
MDA-MB-435 = system: MDA-MB-435
MDA-N = system: MDA-N
MOLT-4 leukemia = system: MOLT-4 leukemia
NCI-H226 lung = system: NCI-H226 lung
NCI-H23 lung = system: NCI-H23 lung
NCI-H460 lung = system: NCI-H460 lung
NCI-H522 lung = system: NCI-H522 lung
NCI/ADR-RES ovarian = system: NCI/ADR-RES ovarian
OVCAR-3 ovarian = system: OVCAR-3 ovarian
OVCAR-4 ovarian = system: OVCAR-4 ovarian
OVCAR-5 ovarian = system: OVCAR-5 ovarian
OVCAR-8 ovarian = system: OVCAR-8 ovarian
PC-3 prostate = system: PC-3 prostate
RPMI-8226 leukemia = system: RPMI-8226 leukemia
RXF 393 renal = system: RXF 393 renal
SF-268 CNS = system: SF-268 CNS
SF-295 CNS = system: SF-295 CNS
SF-539 CNS = system: SF-539 CNS
SK-MEL-2 melanoma = system: SK-MEL-2 melanoma
SK-MEL-28 melanoma = system: SK-MEL-28 melanoma
SK-MEL-5 melanoma = system: SK-MEL-5 melanoma
SK-OV-3 ovarian = system: SK-OV-3 ovarian
SN12C renal = system: SN12C renal
SNB-19 CNS = system: SNB-19 CNS
SNB-75 CNS = system: SNB-75 CNS
SR leukemia = system: SR leukemia
T-47D breast = system: T-47D breast
TK-10 renal = system: TK-10 renal
U251 CNS = system: U251 CNS
UACC-257 melanoma = system: UACC-257 melanoma
UACC-62 melanoma = system: UACC-62 melanoma
UO-31 renal = system: UO-31 renal

Cc1c(C)c(S(=O)(=O)N(CCCCCCN)OCCCN)c(C)c2c1OC(C)(C)CC2
TGI (786-0 renal): 11.9 µM | TGI (A498 renal): 40.3 µM | TGI (A549 NSCLC): 29 µM | TGI (ACHN renal): 25.6 µM | TGI (BT-549 breast): 28.6 µM | TGI (CAKI-1 renal): > 53.1 µM | TGI (CCRF-CEM leukemia): > 20.9 µM | TGI (COLO 205 colon): > 26.5 µM | TGI (DU-145 prostate): 64 µM | TGI (EKVX NSCLC): 19.8 µM | TGI (HCC-2998 colon): 3.8 µM | TGI (HCT-116 colon): 4.63 µM | TGI (HCT-15 colon): 34.7 µM | TGI (HOP-62 NSCLC): 15.9 µM | TGI (HOP-92 NSCLC): 15.2 µM | TGI (HS 578T breast): 13 µM | TGI (HT29 colon): 24.9 µM | TGI (IGROV1 ovarian): 4.62 µM | TGI (K-562 leukemia): > 28.3 µM | TGI (KM12 colon): 3.75 µM | TGI (M14 melanoma): > 64.1 µM | TGI (MALME-3M melanoma): 4.34 µM | TGI (MCF7 breast): > 100 µM | TGI (MDA-MB-231 breast): 20.1 µM | TGI (MDA-MB-435): 15 µM | TGI (MDA-N): 30.9 µM | TGI (MOLT-4 leukemia): 10.4 µM | TGI (NCI-H226 lung): 27.5 µM | TGI (NCI-H23 lung): 24 µM | TGI (NCI-H460 lung): 8.45 µM | TGI (NCI-H522 lung): 9.95 µM | TGI (NCI/ADR-RES ovarian): 33.2 µM | TGI (OVCAR-3 ovarian): 7.53 µM | TGI (OVCAR-4 ovarian): 8.37 µM | TGI (OVCAR-5 ovarian): > 51.4 µM | TGI (OVCAR-8 ovarian): 26 µM | TGI (PC-3 prostate): 17.3 µM | TGI (RPMI-8226 leukemia): 7.68 µM | TGI (RXF 393 renal): 15.6 µM | TGI (SF-268 CNS): 22.5 µM | TGI (SF-295 CNS): 22.6 µM | TGI (SF-539 CNS): > 100 µM | TGI (SK-MEL-2 melanoma): 6.13 µM | TGI (SK-MEL-28 melanoma): 71.9 µM | TGI (SK-MEL-5 melanoma): > 35.6 µM | TGI (SK-OV-3 ovarian): 25.2 µM | TGI (SN12C renal): > 100 µM | TGI (SNB-19 CNS): 12.9 µM | TGI (SNB-75 CNS): 11 µM | TGI (SR leukemia): > 31.6 µM | TGI (T-47D breast): > 47.1 µM | TGI (TK-10 renal): 32.8 µM | TGI (U251 CNS): > 20.7 µM | TGI (UACC-257 melanoma): 29.7 µM | TGI (UACC-62 melanoma): 30.6 µM | TGI (UO-31 renal): 28.6 µM
